Assay results as given in patent US9738634B2, “Heterocyclic amide compound and herbicide” (SYNGENTA PARTICIPATIONS AG, priority 2013, dated 2017).

What was measured:
Type in all cases: in vivo
Details in all cases: treatment dosage 320 g/ha
black-grass [1] = assay: Test Example 3: weedkilling efficacy through soil treatment; H: black-grass
In short: (§1)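 Crop and weed responses were judged three weeks after a uniform surface spray of the water-diluted emulsion at the given g/ha rate. Seeds sat beneath about 1.5 cm of sterilized diluvial soil, and boxes stood in a greenhouse at 25 to 30° C.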

soybean [2] = assay: Test Example 4: foliar treatment, effect on crop; d: soybean
In short: (§2)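 Seeds are spot-sown into sterilized diluvial soil and covered with about 1.5 cm of soil. After 14 days' greenhouse growth at 25 to 30° C, plants are sprayed on stems and leaves with diluted emulsion at the stated g/ha rate, then scored at 3 weeks.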

barnyard grass [3] = assay: Test Example 4: weedkilling efficacy by foliar treatment; F: barnyard grass
In short: as §2

bulrush [4] = assay: Test Example 2: weedkilling efficacy, growth period weed treatment in the submerged state; B: bulrush
In short: (§3)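 Seedlings at 1-2 leaves in 4 cm-deep submerged alluvial soil received emulsion formulations on the water surface, dosed per hectare; effects were judged 3 weeks on.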

chickweed [5] = assay: Test Example 3: weedkilling efficacy through soil treatment; N: chickweed
In short: as §1

bulrush [6] = assay: Test Example 1: weedkilling efficacy, preemergent weed treatment in the submerged state; B: bulrush
In short: (§4)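 Pre-emergence paddy test: weed seeds sown in submerged alluvial soil (4 cm water), 2.5-leaf rice transplanted, water-diluted emulsion applied to water surface at sowing at stated g/ha. Scored at 3 weeks, greenhouse 25–30 °C.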

crabgrass [7] = assay: Test Example 3: weedkilling efficacy through soil treatment; D: crabgrass
In short: as §1

fig-leafed goosefoot [8] = assay: Test Example 3: weedkilling efficacy through soil treatment; M: fig-leafed goosefoot
In short: as §1

rapeseed [9] = assay: Test Example 4: foliar treatment, effect on crop; g: rapeseed
In short: as §2

crabgrass [10] = assay: Test Example 4: weedkilling efficacy by foliar treatment; D: crabgrass
In short: as §2

chickweed [11] = assay: Test Example 4: weedkilling efficacy by foliar treatment; N: chickweed
In short: as §2

soybean [12] = assay: Test Example 3: soil treatment, effect on crop; d: soybean
In short: as §1

birds-eye speedwell = assay: Test Example 4: weedkilling efficacy by foliar treatment; p: birds-eye speedwell
In short: as §2

black-grass [13] = assay: Test Example 4: weedkilling efficacy by foliar treatment; H: black-grass
In short: as §2

Italian ryegrass [14] = assay: Test Example 4: weedkilling efficacy by foliar treatment; I: Italian ryegrass
In short: as §2

fig-leafed goosefoot [15] = assay: Test Example 4: weedkilling efficacy by foliar treatment; M: fig-leafed goosefoot
In short: as §2

barnyard grass [16] = assay: Test Example 3: weedkilling efficacy through soil treatment; F: barnyard grass
In short: as §1

wild oat [17] = assay: Test Example 4: weedkilling efficacy by foliar treatment; G: wild oat
In short: as §2

wild oat [18] = assay: Test Example 3: weedkilling efficacy through soil treatment; G: wild oat
In short: as §1

common wind-grass [19] = assay: Test Example 4: weedkilling efficacy by foliar treatment; J: common wind-grass
In short: as §2

oval-leafed pondweed [20] = assay: Test Example 1: weedkilling efficacy, preemergent weed treatment in the submerged state; C: oval-leafed pondweed
In short: as §4

barnyard grass [21] = assay: Test Example 2: weedkilling efficacy, growth period weed treatment in the submerged state; A: barnyard grass
In short: as §3

corn [22] = assay: Test Example 3: soil treatment, effect on crop; c: corn
In short: as §1

redroot pigweed [23] = assay: Test Example 3: weedkilling efficacy through soil treatment; L: redroot pigweed
In short: as §1

barnyard grass [24] = assay: Test Example 1: weedkilling efficacy, preemergent weed treatment in the submerged state; A: barnyard grass
In short: as §4

common wind-grass [25] = assay: Test Example 3: weedkilling efficacy through soil treatment; J: common wind-grass
In short: as §1

directly sown rice [26] = assay: Test Example 4: foliar treatment, effect on crop; b: directly sown rice
In short: as §2

Italian ryegrass [27] = assay: Test Example 3: weedkilling efficacy through soil treatment; I: Italian ryegrass
In short: as §1

oval-leafed pondweed [28] = assay: Test Example 2: weedkilling efficacy, growth period weed treatment in the submerged state; C: oval-leafed pondweed
In short: as §3

beet [29] = assay: Test Example 3: soil treatment, effect on crop; f: beet
In short: as §1

corn [30] = assay: Test Example 4: foliar treatment, effect on crop; c: corn
In short: as §2

beet [31] = assay: Test Example 4: foliar treatment, effect on crop; f: beet
In short: as §2

green foxtail [32] = assay: Test Example 3: weedkilling efficacy through soil treatment; E: green foxtail
In short: as §1

rapeseed [33] = assay: Test Example 3: soil treatment, effect on crop; g: rapeseed
In short: as §1

redroot pigweed [34] = assay: Test Example 4: weedkilling efficacy by foliar treatment; L: redroot pigweed
In short: as §2

green foxtail [35] = assay: Test Example 4: weedkilling efficacy by foliar treatment; E: green foxtail
In short: as §2

catchweed = assay: Test Example 4: weedkilling efficacy by foliar treatment; O: catchweed
In short: as §2

Indian mallow [36] = assay: Test Example 4: weedkilling efficacy by foliar treatment; K: Indian mallow
In short: as §2

transplanted rice = assay: Test Example 1: preemergent weed treatment in the submerged state, effect on crop; a: transplanted rice
In short: as §4

Indian mallow [37] = assay: Test Example 3: weedkilling efficacy through soil treatment; K: Indian mallow
In short: as §1

wheat [38] = assay: Test Example 3: soil treatment, effect on crop; e: wheat
In short: as §1

wheat [39] = assay: Test Example 4: foliar treatment, effect on crop; e: wheat
In short: as §2

directly sown rice [40] = assay: Test Example 3: soil treatment, effect on crop; b: directly sown rice
In short: as §1

CC1=C(c2cccnc2F)C(=O)N(C(C)(C)C(=O)Nc2cc(C(F)(F)F)cc(F)n2)CO1 [B-2-13]
H (black-grass) weedkilling efficacy grade (black-grass [1]): 5 (weed kill ratio 90% or more, (practically complete withering))
d (soybean) effect on crop grade (soybean [2]): 4 (weed kill ratio 70% or more, less than 90%)
F (barnyard grass) weedkilling efficacy grade (barnyard grass [3]): 5 (weed kill ratio 90% or more, (practically complete withering))
B (bulrush) weedkilling efficacy grade (bulrush [4]): 5 (weed kill ratio 90% or more, (practically complete withering))
N (chickweed) weedkilling efficacy grade (chickweed [5]): 3 (weed kill ratio 40% or more, less than 70%)
B (bulrush) weedkilling efficacy grade (bulrush [6]): 5 (weed kill ratio 90% or more, (practically complete withering))
D (crabgrass) weedkilling efficacy grade (crabgrass [7]): 5 (weed kill ratio 90% or more, (practically complete withering))
M (fig-leafed goosefoot) weedkilling efficacy grade (fig-leafed goosefoot [8]): 3 (weed kill ratio 40% or more, less than 70%)
g (rapeseed) effect on crop grade (rapeseed [9]): 4 (weed kill ratio 70% or more, less than 90%)
D (crabgrass) weedkilling efficacy grade (crabgrass [10]): 5 (weed kill ratio 90% or more, (practically complete withering))
N (chickweed) weedkilling efficacy grade (chickweed [11]): 4 (weed kill ratio 70% or more, less than 90%)
d (soybean) effect on crop grade (soybean [12]): 0 (weed kill ratio 5% or less (practically no effect))
P (birds-eye speedwell) weedkilling efficacy grade (birds-eye speedwell): 5 (weed kill ratio 90% or more, (practically complete withering))
H (black-grass) weedkilling efficacy grade (black-grass [13]): 5 (weed kill ratio 90% or more, (practically complete withering))
I (Italian ryegrass) weedkilling efficacy grade (Italian ryegrass [14]): 5 (weed kill ratio 90% or more, (practically complete withering))
M (fig-leafed goosefoot) weedkilling efficacy grade (fig-leafed goosefoot [15]): 4 (weed kill ratio 70% or more, less than 90%)
F (barnyard grass) weedkilling efficacy grade (barnyard grass [16]): 5 (weed kill ratio 90% or more, (practically complete withering))
G (wild oat) weedkilling efficacy grade (wild oat [17]): 3 (weed kill ratio 40% or more, less than 70%)
G (wild oat) weedkilling efficacy grade (wild oat [18]): 5 (weed kill ratio 90% or more, (practically complete withering))
J (common wind-grass) weedkilling efficacy grade (common wind-grass [19]): 5 (weed kill ratio 90% or more, (practically complete withering))
C (oval-leafed pondweed) weedkilling efficacy grade (oval-leafed pondweed [20]): 5 (weed kill ratio 90% or more, (practically complete withering))
A (barnyard grass) weedkilling efficacy grade (barnyard grass [21]): 5 (weed kill ratio 90% or more, (practically complete withering))
c (corn) effect on crop grade (corn [22]): 1 (weed kill ratio 5% or more, less than 20%)
L (redroot pigweed) weedkilling efficacy grade (redroot pigweed [23]): 4 (weed kill ratio 70% or more, less than 90%)
A (barnyard grass) weedkilling efficacy grade (barnyard grass [24]): 5 (weed kill ratio 90% or more, (practically complete withering))
J (common wind-grass) weedkilling efficacy grade (common wind-grass [25]): 5 (weed kill ratio 90% or more, (practically complete withering))
b (directly sown rice) effect on crop grade (directly sown rice [26]): 3 (weed kill ratio 40% or more, less than 70%)
I (Italian ryegrass) weedkilling efficacy grade (Italian ryegrass [27]): 5 (weed kill ratio 90% or more, (practically complete withering))
C (oval-leafed pondweed) weedkilling efficacy grade (oval-leafed pondweed [28]): 5 (weed kill ratio 90% or more, (practically complete withering))
f (beet) effect on crop grade (beet [29]): 4 (weed kill ratio 70% or more, less than 90%)
c (corn) effect on crop grade (corn [30]): 4 (weed kill ratio 70% or more, less than 90%)
f (beet) effect on crop grade (beet [31]): 4 (weed kill ratio 70% or more, less than 90%)
E (green foxtail) weedkilling efficacy grade (green foxtail [32]): 5 (weed kill ratio 90% or more, (practically complete withering))
g (rapeseed) effect on crop grade (rapeseed [33]): 4 (weed kill ratio 70% or more, less than 90%)
L (redroot pigweed) weedkilling efficacy grade (redroot pigweed [34]): 4 (weed kill ratio 70% or more, less than 90%)
E (green foxtail) weedkilling efficacy grade (green foxtail [35]): 5 (weed kill ratio 90% or more, (practically complete withering))
O (catchweed) weedkilling efficacy grade (catchweed): 5 (weed kill ratio 90% or more, (practically complete withering))
K (Indian mallow) weedkilling efficacy grade (Indian mallow [36]): 5 (weed kill ratio 90% or more, (practically complete withering))
a (transplanted rice) effect on crop grade (transplanted rice): 1 (weed kill ratio 5% or more, less than 20%)
K (Indian mallow) weedkilling efficacy grade (Indian mallow [37]): 0 (weed kill ratio 5% or less (practically no effect))
e (wheat) effect on crop grade (wheat [38]): 0 (weed kill ratio 5% or less (practically no effect))
e (wheat) effect on crop grade (wheat [39]): 0 (weed kill ratio 5% or less (practically no effect))
b (directly sown rice) effect on crop grade (directly sown rice [40]): 5 (weed kill ratio 90% or more, (practically complete withering))
